Results taken from patent US12258561B2, “Compositions and methods to promote bone formation and their uses including for the treatment of cancer” (THE RESEARCH FOUNDATION FOR THE STATE UNIVERSITY OF NEW YORK, priority 2014, dated 2025).
Entries after “also recorded” stand apart in the source; their conditions may differ.

How the values were obtained:
[1] = tested on: unicortical defect in mouse tibia; experiment: Opioid antagonist containing collagen implant in unicortical defect model, microCT; format: in vivo, C57BL/6 mice; settings: 7 days after surgery
Source text: Implantation of Opioid Antagonist Containing Collagen Implant into a Unicortical Defect Model: Male 5-week old C57BL/6 mice (n=5 per treatment group for a total of 25 total animals) were used in this study. […] Unicortical defects were surgically administered through a small incision (approximately 3-mm) made just below the knee joint, located on the medial side of the tibia just below the tibial tuberosity on the tibial crest. In 5-weeks old male mice, the physeal plate is clearly visible and the drill bit was placed approximately 1-mm below this point. The drill-bit produces a unicortical defect with dimensions 300-μm diameter×1-mm depth. […] In parallel, a separate group of animals served as non-surgical controls. Mice were euthanized 7-days after surgery, hind limbs were collected and tibias were prepared for micro-CT (μCT) analysis.
(§1) MicroCT Analysis of Unicortical Defects: High-resolution images of the tibia were acquired with μCT imaging system (μT40; Scanco Medical). Tibias were scanned at 45-keV with an isotropic voxel size of 12-μm. An analysis region was selected from axial sections to include the entire unicortical defect bounded by the endosteal cortical wall. The volume corrected bone volume (bone volume/total volume; By/Tv), trabecular number (TbN) and trabecular thickness (TbTh) were calculated using the Scanco software.

[2] = tested on: MSC cultures induced to become osteoblasts; experiment: Osteogenesis: mineral formation in MSC with osteoinduction media (alizarin red-S staining); format: cell-based, human
Source text: Methods: Human Bone Marrow was Collected from Consenting Adult Patients undergoing either an elective primary proximal femoral total hip arthroplasty or elective primary distal femoral total knee arthroplasty (n=6, mean age 65) as a part of an IRB approved study. Human MSC were derived from the adherent fraction of cells derived from each whole bone marrow aspirate collected, while the monocyte population was collected from the non-adherent fraction of the bone marrow. The monocyte fraction was enriched through sub-culture with 100-ng/mL recombinant human macrophage colony-stimulating factor (MCSF; Wyeth). In parallel experiments described below, the femurs from 3-week (n=10) and 16-week (n=20) old male mice were collected and then the bone marrow was flushed from the femur according to the following: A 21-gauge needle was inserted into the femoral intramedular canal after the removal of the proximal and distal ends of the femur. Media was then carefully passed through the proximal end of the femur, which forced the bone marrow to pass out of the bone. Finally, the bone marrow pellet was mechanically disassociated using an 18-gauge needle and then passed through a 70-μm mesh filter. These whole bone marrow aspirates were used to generate osteoclasts. Cells were maintained in Dulbecco's Modification of Eagle's Media (DMEM) containing 10% fetal calf serum (v/v) and 1% penicillin-streptomycin-glutamine (PSG; Cellgro, Mediatech). […] The responsible IACUC committee approved all of the animal studies described in this work.
Osteogenesis: Osteogenic potential in MSC was assayed by chemically inducing mineral formation. MSC from at least three human patients were seeded at 5×10^3 cells per well and allowed to become confluent and woven prior to the addition of osteo-induction media. Induction media consisted of DMEM containing 20% FCS (v/v) and 1% PSG supplemented with 25-μg/mL of acscorbic-2-phosphate (Sigma), 100-nM dexamethasone (Sigma) and the following dosing regimen of β-glycerophosphate (BGP; Sigma): 1× media change with 5-mM BGP, 1× media change with 10-mM BGP and 1× media change with 20-mM of BGP. Met5-ligand (0-, [5-μM] 2.87-, or [50-μM] 28.7-μg; Sigma), naloxone (0-, 400-fg, 400-pg, 400-ng, 400-μg; Sigma) or naltrexone (0-, 378-fg, 378-pg, 378-ng, 378-μg; Sigma) was added as follows: 1) 1×, with the first addition of osteo-induction media, 2) 2×, with the first and second addition of osteo-induction media and 3) with each post-induction media change. […] After the appearance of mineral nodules, cells were fixed with 70% ice-cold EtOH (Sigma) and then stained using 40-mM alizarin red-S (pH 4.2, Sigma). Osteogenesis experiments were repeated at least twice for each patient.

[3] = tested on: Hs822t Ewing's sarcoma of bone tumor cells; experiment: Assay of cell number (MTT), Hs822t cells; format: cell-based
Source text: (§2) Methods: Human bone marrow was collected from consenting adult patients undergoing either an elective primary proximal femoral total hip arthroplasty or elective primary distal femoral total knee arthroplasty (n=6, mean age 65) as a part of an IRB approved study. Human MSC were derived from the adherent fraction of whole bone marrow aspirates. Ewing's sarcoma tumor cells (RDES, Hs822 and Hs863) and SaOS2 osteosarcoma tumor cells were obtained from ATCC. Cells were maintained in Dulbecco's Modification of Eagle's Media (DMEM) containing 10% fetal calf serum (v/v) and 1% penicillin-streptomycin-glutamine (PSG; Cellgro, Mediatech).
(§3) Assay of Cell Number: Following the addition of 1-mM naloxone or 1-mM naltrexone, viable cell number was determined with the MTT assay. After 72-hours and 120-hours, MTT (5 mg/ml (w/v), Sigma) was added to each well, incubated for 2-hours, after which the cells lysed with 500-μl of DMSO (Sigma). MTT was measured at 570-nm and the effects of therapy on cell proliferation were determined by normalizing treated wells relative to mean values from non-treated wells: Fold change in cell number=100*[treated cells optical density/mean control optical density].

[4] = tested on: RDES Ewing's sarcoma of bone tumor cells; experiment: Assay of cell number (MTT), RDES cells; format: cell-based
Source text: as §2, §3

[5] = tested on: monocytes cultured to become osteoclasts; experiment: TRAP staining and assay of osteoclast number; format: cell-based, human, mouse
Description: TRAP Staining and the Assay of Osteoclast Number: Osteoclasts were derived from either an enriched population of human monocytes or from mouse non-enriched whole bone marrow aspirates. Three human patient bone marrow samples were assayed in parallel with samples collected from 3-week (n=10) mouse bone marrow. The monocyte fraction was stimulated to become osteoclasts by culturing 1×10^6 cells with 25-ng/mL of MCSF and 25-ng/mL of recombinant human or mouse RANK-ligand (R&D Systems) in the presence of the met5-ligand ([5-μM] 2.87-, or [50-μM] 28.7-μg; Sigma), naloxone (400-ng or 400-μg; Sigma) or naltrexone (378-ng or 378-μg; Sigma). Osteoclasts were stained with tartrate resistant acid phosphatase (TRAP; Sigma Leukocyte Acid Phosphatase Kit 387-A) and counted when cells stained TRAP-positive and had at least three nuclei. Estimates of osteoclast number were obtained by Cavalieri sampling and a modification of the fractionator technique.

[6] = tested on: SaO52 osteosarcoma tumor cells; experiment: Assay of cell number (MTT), osteosarcoma cells; format: cell-based
Source text: as §2, §3

[7] = tested on: unicortical defect in mouse tibia; experiment: Unicortical defect model, direct injection, microCT; format: in vivo, C57BL/6 mice; settings: naloxone 1-mM or met5 50-μM
Description: Unicortical Defect Model: Male 3-week old C57BL/6 mice (n=5 per treatment group) were injected with met5, naloxone or naltrexone following the creation of a unicortical defect. Briefly, a small incision (approximately 3-mm) was made just below the knee joint, located on the medial side of the tibia just below the tibial tuberosity on the tibial crest. In young animals the physeal plate is clearly visible and the drill bit was placed approximately 1-mm below this point. The drill-bit produces a unicortical defect with dimensions 300-μm diameter×1-mm depth. A Hamilton Neuros RN 10-μL syringe with a 33-gauge blunt tip needle was used to inject 2-μL of met5 (28.7-μg), naloxone (400-μg) or naltrexone (378-μg) resuspended in saline directly into the unicortical defect at a rate no faster than approximately 0.1-μL per second. The left-limb tibias served as contra-lateral surgical controls, in which animals received a unicortical defect and 2-μL of saline was injected. Mice were euthanized 5-days after surgery, hind limbs were collected and tibias were fixed for immunofluorescence, TRAP staining and OTC associated bone growth.
as §1

[8] = collagen implant, 25-ng BMP2, 1-mM naltrexone or 1-mM naloxone
[9] = 50-μM met5 with collagen implant

Molecule	Bv/Tv relative to non-surgical controls ([1]; collagen implant)	trabecular thickness (TbTh) relative to the control non-surgical group ([1]; collagen implant)	Bv/Tv compared with the BMP2 treated group ([1]; collagen implant, 1-mM)	increase in Bv/Tv relative to the PBS treated group [1, 8]	increase in Bv/Tv relative to the surgical control group [1, 8]	mineral accumulation (red staining) ([2]; between 1-μM and 1-mM with osteoinduction media)	Hs822t tumor cell number relative to control cultures ([3]; 1-mM, seventy-two hours)	RDES tumor cell number relative to control cultures ([4]; 1-mM, seventy-two hours)	osteoclast number (TRAP staining) ([5]; 1-mM)	osteoclast number (TRAP staining) ([5]; 1-μM)	SaO52 osteosarcoma cell number relative to control cultures ([6]; 1-mM, seventy-two hours)	Bv/Tv greater than the non-surgical control group [1, 9]	fracture healing (Bv/Tv) compared with the surgical control group [1, 9]	mineral accumulation ([2]; 5-μM met5 added to osteoinduction media)	mineral accumulation ([2]; 50-μM met5 added to osteoinduction media)	Hs822t tumor cell number ([3]; 50-μM of met5)	RDES tumor cell number ([4]; met5)	osteoclast number (TRAP staining) ([5]; met5, relative to control osteoclast cultures)	SaO52 osteosarcoma cell number ([6]; met5)	bone healing [7]
O=C1CC[C@@]2(O)[C@H]3Cc4ccc(O)c5c4[C@@]2(CCN3CC2CC2)[C@H]1O5 [naltrexone]	increased relative to non-surgical controls	increased within the defect significantly	no significant difference	39.2%	63.5%	increased mineral, but to a lesser extent than naloxone	decreased relative to the control cultures	decreased significantly	reduced osteoclast number substantially	did not significantly reduce osteoclast number	decreased significantly	–	–	–	–	–	–	–	–	–
Tyr-Gly-Gly-Phe-Met (YGGFM; printed: Tyr-Gly-Gly-Phe-Met) [met5, opioid growth factor (OGF or met-5 enkephalin), the native ligand for the OGFR]	–	increased within the defect significantly	–	–	–	–	–	–	–	–	–	approximately 37%	not significantly different	no effect on mineral formation in culture; also recorded: no effect on mineral accumulation	no effect on mineral formation in culture; also recorded: decreased mineral accumulation slightly	significant increase	no effect	unaffected	had not effect on cell number	no effect
